Experimental data as given in patent US5853742A, “Cosmetic compositions containing lactate dehydrogenase inhibitors” (priority 1997, dated 1998).
Values joined by “and” are separate entries in the source; they are usually repeats but may differ in a detail not shown here. Equal entries are not always repeated. Where two headings read alike, the source gives them in different places.

Key:
[1] = system: Neonatal human dermal fibroblasts; test: Collagen synthesis (secreted procollagen 1 immunoassay); assay type: cell-based; conditions: 0.2 to 20 mM, 48 hours, serum-free medium
Protocol: Neonatal human dermal fibroblasts were purchased from Clonetics Corp., San Diego, Calif. All materials for cell culture were purchased from Life Technologies, N.Y. Cells were maintained in DMEM with 10% fetal bovine serum and used in passages 5-10, Confluent 96-well plates containing fibroblasts were treated with test materials (0.2 to 20 mM) in serum-free medium for 48 hours. […] This was carried out in a BioDot SF apparatus according to the manufacturer's instructions (BioRad Labs, CA) and the blot was developed using a Vectastain Kit (PK6104, Vector Labs, CA) as per the manufacturer's directions. Color intensity was quantitated using an Ultroscan XL densitometer (Pharmacia LKB). Fold increase was calculated as (density of treated)/untreated.

[2] = system: Normal human epidermal keratinocytes (NHEK); test: Keratinocyte proliferation (DNA content, fluorometric); assay type: cell-based
Protocol: Normal human epidermal keratinocytes (NHEK) derived from neonatal foreskin were used for all experiments. Media were purchased from Clonetics Corp., San Diego, Calif. Cell stocks frozen in passage 2 were grown in Keratinocyte Growth Medium (KGM) and passaged when 70-80% confluent. Cells were seeded in 96 well plates (Corning) at a density of 7500 cells/well in KGM. After 24 hours, cells were rinsed and dosed with test compounds in 200 μl of Keratinocyte Basal Medium (KBM). Plates were incubated for three days at 37° C., 5% CO2. Cell proliferation was estimated by assaying for DNA content by a fluorometric method described by Rago et al. (Analytical Biochemistry, 191:31-34, 1990). Medium was removed and cells were rinsed with phosphate buffered saline solution. 100 μl of sterile distilled water was added to each well and plates were frozen at -70° C. for one and a half hours. Plates were thawed for one hour at which time 100 μl of a 20 ug/ml solution of Bisbenzimide H33258 fluorochrome (Calbiochem Corp., La Jolla, Calif.) was added to each well. The fluorochrome was prepared just prior to use in 10 mM Tris, 1 mM EDTA, 4M NaCl, pH 7.4. Plates were read in a Millipore Cytofluor fluorescent plate reader to quantify DNA (excitation 360 nm, emission 460 nm). Percent increase over control was calculated from blank-corrected readings as (treated-untreated)/(untreated)*100%.

[3] = system: Fibroblast Lactate Dehydrogenase; test: Lactate dehydrogenase (LDH) inhibition, fibroblast lysate; assay type: biochemical, human
Protocol: All reagents were purchased from Sigma Chemical Co., St. Louis, Mo, USA. Sigma procedure No. 500 was modified for our purposes. One mL of pyruvate substrate (Sigma […]-1, pH=7.5) was added to a vial containing 1 mg NADH (Sigma 340-101). In a 96-well plate, the following components were added to each test well: 10 μl pyruvate/NADH mixture, and 10 μl cell lysate. For preparation of cell lysates, neonatal human keratinocytes or fibroblasts (Clonetic Corp., San Diego, Calif.) were cultured in tissue culture plates (Corning, USA). Cells were scraped in PBS (pH=7.4) and this solution was used as a source of L-lactate dehydrogenase. If such cell lysate was not available, a commercial preparation of L-lactic dehydrogenase (E.C.1.1.1.27), Sigma L9889, from porcine heart could be used in place of the cell lysate. For positive control, the inhibitor was replaced with 10 μl of PBS. For blank determination, the lysate or enzyme was replaced with […]. After mixing, the plate was incubated for 30 minutes at 37° C. Then 20 μl of color reagent (Sigma 505-2) was added to each well. After 20 minutes at room temperature, 150 μI of 0.4N NaOH was added, and the plate was read for absorbance at 490 nm in a Dynatech MR 7000 Microplate Reader. To calculate % inhibition, the control activity (CA) was first determined by subtracting the absorbance of the positive control from the blank, Then the activity in the presence of the inhibitor (IA) was calculated by subtracting the appropriate absorbance from the blank. %/, Inhibition was then calculated as: ((CA-IA)/CA)* 100%/.

CC(=O)O [Acetate]
Maximum fold over Control (collagen synthesis) [1]: 2.0 fold

O=C(O)CC(O)(CC(=O)O)C(=O)O [Citrate]
activation at 10 µM ([2]; Homo sapiens, NHEK, 72 h, read-out: % Increase Over Control (keratinocyte proliferation), Table 6, citrate 0.01 mM): 25% | activation at 100 µM ([2]; Homo sapiens, NHEK, 72 h, read-out: % Increase Over Control (keratinocyte proliferation), Table 6, citrate 0.1 mM): 40% | activation at 150 µM ([2]; Homo sapiens, NHEK, 72 h, read-out: % Increase Over Control (keratinocyte proliferation), Table 6, citrate 0.15 mM): 18% | activation at 300 µM ([2]; Homo sapiens, NHEK, 72 h, read-out: % Increase Over Control (keratinocyte proliferation), Table 6, citrate 0.3 mM): 39% | activation at 600 µM ([2]; Homo sapiens, NHEK, 72 h, read-out: % Increase Over Control (keratinocyte proliferation), Table 6, citrate 0.6 mM): 35% | activation at 1000 µM ([2]; Homo sapiens, NHEK, 72 h, read-out: % Increase Over Control (keratinocyte proliferation), Table 6, citrate 1.0 mM): 20% | activation at 1250 µM ([2]; Homo sapiens, NHEK, 72 h, read-out: % Increase Over Control (keratinocyte proliferation), Table 6, citrate 1.25 mM): 18% | activation at 2500 µM ([2]; Homo sapiens, NHEK, 72 h, read-out: % Increase Over Control (keratinocyte proliferation), Table 6, citrate 2.5 mM): 0% | activation at 5000 µM ([2]; Homo sapiens, NHEK, 72 h, read-out: % Increase Over Control (keratinocyte proliferation), Table 6, citrate 5.0 mM): 0% | activation at 10000 µM ([2]; Homo sapiens, NHEK, 72 h, read-out: % Increase Over Control (keratinocyte proliferation), Table 6, citrate 10 mM): 0% | activation at 2 µM ([2]; Homo sapiens, NHEK, 72 h, read-out: % Increase Over Control (keratinocyte proliferation), Table 7, 0.002 mM): 22% | activation at 20 µM ([2]; Homo sapiens, NHEK, 72 h, read-out: % Increase Over Control (keratinocyte proliferation), Table 7, 0.02 mM): 31% | activation at 20000 µM ([2]; Homo sapiens, NHEK, 72 h, read-out: % Increase Over Control (keratinocyte proliferation), Table 7, 20 mM): 0%

C[C@@H](O)C(=O)O [D-lactate]
% Inhibition ([3]; 0.625 mM): 0% | % Inhibition ([3]; 1.25 mM): 0% | % Inhibition ([3]; 2.5 mM): 0% | % Inhibition ([3]; 5 mM): 0%

N[C@@H](CCC(=O)O)C(=O)O [Glutamate]
Maximum fold over Control (collagen synthesis) [1]: 3.6 fold

NCC(=O)O [Glycinate]
% Inhibition ([3]; 0.625 mM): 0% | % Inhibition ([3]; 1.25 mM): 0% | % Inhibition ([3]; 2.5 mM): 0% | % Inhibition ([3]; 5 mM): 0%

O=C(O)CO [Glycolate]
% Inhibition ([3]; 0.625 mM): 0% | % Inhibition ([3]; 1.25 mM): 0% | % Inhibition ([3]; 2.5 mM): 0% | % Inhibition ([3]; 5 mM): 0%

O=C(O)CC(C(=O)O)C(O)C(=O)O (stereo not shown) [Isocitrate]
activation at 0.2 µM ([2]; Homo sapiens, NHEK, 72 h, read-out: % Increase Over Control (keratinocyte proliferation), Table 8, isocitrate 0.0002 mM): 0% | activation at 2 µM ([2]; Homo sapiens, NHEK, 72 h, read-out: % Increase Over Control (keratinocyte proliferation), Table 8, isocitrate 0.002 mM): 39% | activation at 156 µM ([2]; Homo sapiens, NHEK, 72 h, read-out: % Increase Over Control (keratinocyte proliferation), Table 8, isocitrate 0.156 mM): 32% | activation at 313 µM ([2]; Homo sapiens, NHEK, 72 h, read-out: % Increase Over Control (keratinocyte proliferation), Table 8, isocitrate 0.313 mM): 40% | activation at 625 µM ([2]; Homo sapiens, NHEK, 72 h, read-out: % Increase Over Control (keratinocyte proliferation), Table 8, isocitrate 0.625 mM): 32% | activation at 1250 µM ([2]; Homo sapiens, NHEK, 72 h, read-out: % Increase Over Control (keratinocyte proliferation), Table 8, isocitrate 1.25 mM): 40% | activation at 2000 µM ([2]; Homo sapiens, NHEK, 72 h, read-out: % Increase Over Control (keratinocyte proliferation), Table 8, isocitrate 2.0 mM): 40% | activation at 2500 µM ([2]; Homo sapiens, NHEK, 72 h, read-out: % Increase Over Control (keratinocyte proliferation), Table 8, isocitrate 2.5 mM): 32% | activation at 5000 µM ([2]; Homo sapiens, NHEK, 72 h, read-out: % Increase Over Control (keratinocyte proliferation), Table 8, isocitrate 5.0 mM): 18% | activation at 10000 µM ([2]; Homo sapiens, NHEK, 72 h, read-out: % Increase Over Control (keratinocyte proliferation), Table 8, isocitrate 10 mM): 0% | % Increase Over Control (keratinocyte proliferation) ([2]; Table 8, isocitrate 0.002 mM): 20% | % Increase Over Control (keratinocyte proliferation) ([2]; Table 8, isocitrate 2.0 mM): 30%

O=C(O)CCC(=O)C(=O)O [Ketoglutarate]
Maximum fold over Control (collagen synthesis) [1]: 2.2 fold

O=C(O)C[C@H](O)C(=O)O [L-Malate]
% Inhibition ([3]; 0.625 mM): 0% | % Inhibition ([3]; 1.25 mM): 0% | % Inhibition ([3]; 2.5 mM): 0% | % Inhibition ([3]; 5 mM): 0% | activation at 2 µM ([2]; Homo sapiens, NHEK, 72 h, read-out: % Increase Over Control (keratinocyte proliferation), Table 5, L-malate 0.002 mM): 34% | activation at 20 µM ([2]; Homo sapiens, NHEK, 72 h, read-out: % Increase Over Control (keratinocyte proliferation), Table 5, L-malate 0.02 mM): 27% | activation at 200 µM ([2]; Homo sapiens, NHEK, 72 h, read-out: % Increase Over Control (keratinocyte proliferation), Table 5, L-malate 0.2 mM): 36% | % Increase Over Control (keratinocyte proliferation) ([2]; Table 5, L-malate 0.2 mM): 19% and 29% | % Increase Over Control ([2]; Table 12, oxamate 0, malate 0.156 mM): 33% | % Increase Over Control ([2]; Table 12, oxamate 0, malate 0.313 mM): 29% | % Increase Over Control ([2]; Table 12, oxamate 0, malate 0.625 mM): 36% | % Increase Over Control ([2]; Table 12, oxamate 0, malate 1.25 mM): 25% | % Increase Over Control ([2]; Table 12, oxamate 0, malate 2.5 mM): 39% | % Increase Over Control ([2]; Table 12, oxamate 0, malate 5.0 mM): 20%

C[C@H](O)C(=O)O [L-lactate]
% Inhibition ([3]; 0.625 mM): 0% | % Inhibition ([3]; 1.25 mM): 0% | % Inhibition ([3]; 2.5 mM): 0% | % Inhibition ([3]; 5 mM): 0%

O=C(O)CC(=O)O [Malonate]
% Inhibition ([3]; 0.625 mM): 0% | % Inhibition ([3]; 1.25 mM): 0% | % Inhibition ([3]; 2.5 mM): 0% | % Inhibition ([3]; 5 mM): 0%

c1cn[nH]c1 [Pyrazole]
% Inhibition ([3]; 0.625 mM): 0% | % Inhibition ([3]; 1.25 mM): 0% | % Inhibition ([3]; 2.5 mM): 0% | % Inhibition ([3]; 5 mM): 0%

CC(=O)C(=O)O [Pyruvate]
% Increase Over Control ([2]; Table 11, oxamate 0, pyruvate 0.156 mM): 2% | % Increase Over Control ([2]; Table 11, oxamate 0, pyruvate 0.313 mM): 0% | % Increase Over Control ([2]; Table 11, oxamate 0, pyruvate 0.625 mM): 3% | % Increase Over Control ([2]; Table 11, oxamate 0, pyruvate 1.25 mM): 0% | % Increase Over Control ([2]; Table 11, oxamate 0, pyruvate 2.5 mM): 7% | % Increase Over Control ([2]; Table 11, oxamate 0, pyruvate 5.0 mM): 0%

O=C(O)CCC(=O)O [Succinate]
Maximum fold over Control (collagen synthesis) [1]: 2.8 fold

CC(S)C(=O)O (stereo not shown) [Thio-Lactate, Thiolactate]
activation at 313 µM ([2]; Homo sapiens, NHEK, 72 h, Table 4, 0.313 mM, read-out: % increase over control (keratinocyte proliferation)): 9% | activation at 625 µM ([2]; Homo sapiens, NHEK, 72 h, Table 4, 0.625 mM, read-out: % increase over control (keratinocyte proliferation)): 29% | activation at 1250 µM ([2]; Homo sapiens, NHEK, 72 h, Table 4, 1.25 mM, read-out: % increase over control (keratinocyte proliferation)): 27% | activation at 2500 µM ([2]; Homo sapiens, NHEK, 72 h, Table 4, 2.5 mM, read-out: % increase over control (keratinocyte proliferation)): 5% | activation at 5000 µM ([2]; Homo sapiens, NHEK, 72 h, Table 4, 5 mM, read-out: % increase over control (keratinocyte proliferation)): 0%

Methyl pyrazole
% Inhibition ([3]; 0.625 mM): 0% | % Inhibition ([3]; 1.25 mM): 0% | % Inhibition ([3]; 2.5 mM): 0% | % Inhibition ([3]; 5 mM): 0%
